System: mineralocorticoid receptor
Assay: MMTV-luciferase reporter assay of mineralocorticoid receptor activity in CV-1 cells stimulated with dexamethasone
Format: cell-based
Settings: 10 μg/ml compound, after 2 hours dexamethasone (1 nM), cultivated 24 hours, normalized to Renilla luciferase, FIG. 2
Experimental: RNA was separated from a CV-1 cell and PCR was performed using reverse transcriptase, so gene expressions of a glucocorticoid receptor (GR) and a mineralocorticoid receptor (MR) were confirmed, and the results are shown in FIG. 1.
The CV-1 cell was cultivated in a 24-well flat incubator. After 24 hours, the incubating medium was replaced with a 10% charcoal dextran-treated FBS-DMEM, and then after 4 hours, mixed DNA of a MMTV-luciferase reporter plasmid and an internal control group of a pRL-SV-40 plasmid was transfected using TransFast reagent (Promega). After 24 hours, it was treated with 10 μg/ml of the compound (Ramidus AB) represented by Chemical Formula 1-1, and after 2 hours, was treated with dexamethasone (1 nM), and then cultivated for 24 hours. The luciferase activity in the cell lysate was measured using a Dual-Luciferase Reporter Assay System (Promega), and the transfection efficiency was normalized by revising Renilla luciferase activity to measure a relative luciferase activity, and the results are shown in FIG. 2.

CC(C)c1ccc2c(c1)CC[C@H]1[C@@H](C)C(C(=O)O)CC[C@]21C (stereo partly shown) [Chemical Formula 1-1]
relative luciferase activity (activity of the mineralocorticoid receptor by dexamethasone): deteriorated activity of the mineralocorticoid receptor

Source: US20220000816A1, “COMPOSITION AND METHOD OF INHIBITING ACTIVITY OF MINERALOCORTICOID RECEPTOR BY APPLYING IT TO THE SKIN” (AMOREPACIFIC CORPORATION, priority 2018, published 2022)
